# Test results from ChEMBL document CHEMBL5537201, “Discovery of Unique Bis-Substituted Aromatic Amide Derivatives as Novel Highly Potent Antibiotics for Combating Methicillin-Resistant Staphylococcus aureus (MRSA)” (J Med Chem, 2024).
# The source made the active and inactive calls. The calls are words filed in the database; no cut-off is given here.
# Legend:
# [1] = test system: Staphylococcus hominis; test: Antimicrobial activity against methicillin-resistant Staphylococcus hominis assessed as reduction in bacterial growth incubated for 24 hrs by two-fold broth dilution method; type: functional
# [2] = Selectivity index, ratio of HC50 for rabbit Red blood cell to MIC for Staphylococcus aureus ATCC6538; type: toxicity; conditions: red blood cells (erythrocytes), read-out: Selectivity Index
# [3] = Cytotoxicity against African green monkey Vero E6 cells assessed as reduction in cell viability measured after 24 hrs by CCK-8 method; type: toxicity, cell-based, Chlorocebus sabaeus, Vero C1008
# [4] = test system: HeLa; test: Cytotoxicity against human HeLa cells assessed as reduction in cell viability measured after 24 hrs by CCK-8 method; type: functional, cell-based
# [5] = Cytotoxicity against HEK293 cells assessed as reduction in cell viability measured after 24 hrs by CCK-8 method; type: toxicity, cell-based; conditions: human
# [6] = test system: A549; test: Cytotoxicity against human A549 cells assessed as reduction in cell viability measured after 24 hrs by CCK-8 method; type: functional, cell-based; conditions: A549, 24 h
# [7] = test system: Staphylococcus aureus; test: Antimicrobial activity against methicillin resistant Staphylococcus aureus clinical isolate MRS1 assessed as reduction in bacterial growth incubated for 24 hrs by two-fold broth dilution method; type: functional
# [8] = test system: Staphylococcus aureus; test: Antimicrobial activity against methicillin resistant Staphylococcus aureus clinical isolate MRS23 assessed as reduction in bacterial growth incubated for 24 hrs by two-fold broth dilution method; type: functional
# [9] = test system: Staphylococcus aureus; test: Antimicrobial activity against methicillin resistant Staphylococcus aureus clinical isolate MRS207 assessed as reduction in bacterial growth incubated for 24 hrs by two-fold broth dilution method; type: functional
# [10] = test system: Staphylococcus aureus; test: Antimicrobial activity against methicillin resistant Staphylococcus aureus clinical isolate MRS200 assessed as reduction in bacterial growth incubated for 24 hrs by two-fold broth dilution method; type: functional
# [11] = test system: Staphylococcus aureus; test: Antimicrobial activity against methicillin resistant Staphylococcus aureus clinical isolate MRS273 assessed as reduction in bacterial growth incubated for 24 hrs by two-fold broth dilution method; type: functional
# [12] = test system: Staphylococcus aureus; test: Induction of membrane morphological changes in Staphylococcus aureus ATCC6538 assessed as cell membrane deformation at 5 times of MIC measured after 0.5 hrs by FE-SEM analysis; type: functional, organism-based
# [13] = test system: Cell membrane; test: Induction of Outer membrane disruption in methicillin resistant Staphylococcus aureus clinical isolate MRS153 assessed as […] in fluorescence intensity measured upto 30 mins by NPN dye based fluorescence analysis; type: cell membranes
# [14] = test system: Cell membrane; test: Induction of inner membrane permeabilization in Staphylococcus aureus ATCC6538 assessed as increase in blue fluorescence at 5 ug/ml by DAPI staining based analysis; type: cell membranes; conditions: dose 5.0 µg/ml
# [15] = test system: Cell membrane; test: Induction of inner membrane permeabilization in Staphylococcus aureus ATCC6538 assessed as increase in […] fluorescence at 5 ug/ml by PI staining based analysis; type: cell membranes; conditions: dose 5.0 µg/ml
# [16] = test system: Cell membrane; test: Induction of inner membrane permeabilization in Staphylococcus aureus ATCC6538 assessed as disruption of cell membrane by measuring rightward shift measured after by PI staining based flow cytometry analysis; type: cell membranes
# [17] = test system: Cell membrane; test: Induction of inner membrane permeabilization in methicillin resistant Staphylococcus aureus clinical isolate MRS153 assessed as disruption of cell membrane by measuring rightward shift measured after by PI staining based flow cytometry analysis; type: cell membranes
# [18] = test system: Staphylococcus hominis; test: Bactericidal activity against multidrug-resistant Staphylococcus hominis at 5 ug/ml measured upto 150 mins; type: functional, organism-based; conditions: dose 5.0 µg/ml
# [19] = test system: Staphylococcus aureus; test: Bactericidal activity against methicillin-resistant Staphylococcus aureus clinical isolate MRS153 at 5 ug/ml measured upto 150 mins; type: functional, organism-based; conditions: dose 5.0 µg/ml
# [20] = test system: Staphylococcus aureus; test: Bactericidal activity against methicillin-resistant Staphylococcus aureus clinical isolate MRS97 at 5 ug/ml measured upto 150 mins; type: functional, organism-based; conditions: dose 5.0 µg/ml
# [21] = test system: Staphylococcus aureus; test: Bactericidal activity against norfloxacin-resistant Staphylococcus aureus ATCC6538 at 5 ug/ml measured upto 150 mins; type: functional, organism-based; conditions: dose 5.0 µg/ml
# [22] = test system: Cell membrane; test: Disruption of cell membrane integrity in methicillin resistant Staphylococcus aureus clinical isolate MRS153 assessed as increase in fluorescence intensity at 1 to 26 times MIC measured upto 36 mins ethidium bromide uptake assay; type: cell membranes
# [23] = test system: Staphylococcus aureus; test: Antimicrobial activity against methicillin resistant Staphylococcus aureus clinical isolate MRS153 assessed as proton dynamic dissipation at pH 5 to 11; type: functional, organism-based
# [24] = test system: Staphylococcus aureus; test: Binding affinity to methicillin resistant Staphylococcus aureus clinical isolate MRS153 Phosphatidylglycerol assessed as change in MIC at upto 256 ug/ml measured after 22 hrs; conditions: dose <= 256.0 µg/ml
# [25] = Binding affinity to Staphylococcus aureus ATCC6538 Phosphatidylethanolamine assessed as dissociation constant by ITC analysis
# [26] = test system: Staphylococcus aureus; test: Antimicrobial activity against methicillin resistant Staphylococcus aureus clinical isolate MRS153 assessed as increase in ROS levels measured upto 180 mins in presence of chloramphenicol by H2DCFDA probe based flow cytometry; type: functional, organism-based
# [27] = test system: Staphylococcus aureus; test: Antimicrobial activity against Staphylococcus aureus ATCC6538 assessed as increase in ROS levels measured upto 180 mins in presence of 2,2'-bipyridyl and thiourea by H2DCFDA probe based flow cytometry; type: functional, organism-based
# [28] = test system: Staphylococcus aureus; test: Antimicrobial activity against methicillin resistant Staphylococcus aureus clinical isolate MRS153 assessed as increase in ROS levels measured upto 180 mins in presence of 2,2'-bipyridyl and thiourea by H2DCFDA probe based flow cytometry; type: functional, organism-based
# [29] = Toxicity in BALB/c mouse assessed as effect on body weight at 50 mg/kg, iv measured upto 8 days; type: organism-based; conditions: in vivo, 192 h, time < 8 day
# [30] = Toxicity in BALB/c mouse assessed as as effect on spleen at 25 to 50 mg/kg, iv by H and E staining based analysis; type: organism-based; conditions: in vivo, dose 25-50 mg/kg
# [31] = Toxicity in BALB/c mouse assessed as as effect on lung at 25 to 50 mg/kg, iv by H and E staining based analysis; type: organism-based; conditions: in vivo, dose 25-50 mg/kg
# [32] = test system: Staphylococcus aureus; test: In vivo antibacterial activity against methicillin-resistant Staphylococcus aureus clinical isolate MRS153 infected in C57BL/6N mouse model assessed as reduction in bacterial load in kidney at 3.125 to 12.5 mg/kg, iv measured after 24 hrs; type: functional, organism-based; conditions: dose 3.125-12.5 mg/kg
# [33] = test system: Staphylococcus aureus; test: In vivo antibacterial activity against methicillin-resistant Staphylococcus aureus clinical isolate MRS153 infected in C57BL/6N mouse model assessed as reduction in bacterial load in liver at 3.125 to 12.5 mg/kg, iv measured after 24 hrs; type: functional, organism-based; conditions: dose 3.125-12.5 mg/kg
# [34] = test system: Staphylococcus aureus; test: In vivo antibacterial activity against methicillin-resistant Staphylococcus aureus clinical isolate MRS153 infected in C57BL/6N mouse model assessed as reduction in bacterial load in spleen at 3.125 to 12.5 mg/kg, iv measured after 24 hrs; type: functional, organism-based; conditions: dose 3.125-12.5 mg/kg
# [35] = test system: Staphylococcus aureus; test: In vivo antibacterial activity against methicillin-resistant Staphylococcus aureus clinical isolate MRS153 infected in C57BL/6N mouse model assessed as reduction in bacterial load in lung at 3.125 to 12.5 mg/kg, iv measured after 24 hrs; type: functional, organism-based; conditions: dose 3.125-12.5 mg/kg
# [36] = test system: Staphylococcus aureus; test: Antibacterial activity against methicillin-resistant Staphylococcus aureus clinical isolate MRS153 infected in C57BL/6N mouse model assessed as reversal of cell morphology to normal state at 3.125 to 12.5 mg/kg, iv; type: functional, organism-based; conditions: dose 3.125-12.5 mg/kg
# [37] = test system: Staphylococcus aureus; test: Upregulation of multidrug efflux pump genes in Staphylococcus aureus ATCC6538 at 5 ug/ml incubated for 2 hrs by RNA sequencing analysis; type: functional; conditions: dose 5.0 µg/ml
# [38] = test system: Staphylococcus aureus; test: Upregulation of redox gene expression in Staphylococcus aureus ATCC6538 at 5 ug/ml incubated for 2 hrs by RNA sequencing analysis; type: functional, organism-based; conditions: dose 5.0 µg/ml
smiles,measurement,setting,value
O=C(CCC(F)(F)F)N(Cc1cc2ccccc2s1)c1cc(-c2noc(C(F)(F)F)n2)ccc1O,MIC,[1],1 mg/L
same,selectivity ratio,[2],> 1000
same,IC50 at 24 h,[3],> 25 mg/L
same,IC50,[4],> 25 mg/L
same,IC50 at 24 h,[5],16.9 mg/L
same,IC50,[6],16.8 mg/L
same,MIC,[7],1 mg/L
same,MIC,[8],2 mg/L
same,MIC,[9],1 mg/L
same,MIC,[10],2 mg/L
same,MIC,[11],1 mg/L
same,Activity,[12],Active
same,Activity,[13],Dose-Dependent Effect
same,Activity,[14],Active
same,Activity,[15],Active
same,Activity,[16],Active
same,Activity,[17],Active
same,Activity,[18],Active
same,Activity,[19],Active
same,Activity,[20],Active
same,Activity,[21],Active
same,Activity,[22],Active
same,Activity,[23],Active
same,Activity,[24],inactive
same,Kd,[25],183 µM
same,Activity,[26],inactive
same,Activity,[27],inactive
same,Activity,[28],inactive
same,Activity,[29],Non-Toxic
same,Activity,[30],Non-Toxic
same,Activity,[31],Non-Toxic
same,Activity,[32],Active
same,Activity,[33],Active
same,Activity,[34],Active
same,Activity,[35],Active
same,Activity,[36],Active
same,Activity,[37],Active
same,Activity,[38],Active
